These results are taken from patent US8975261B2, “Aryloxmethyl cyclopropane derivatives as PDE10 inhibitors” (Merck Sharp & Dohme Corp., priority 2011, dated 2015).

Chain of human PDE10A2 (Q9Y233 267-1055): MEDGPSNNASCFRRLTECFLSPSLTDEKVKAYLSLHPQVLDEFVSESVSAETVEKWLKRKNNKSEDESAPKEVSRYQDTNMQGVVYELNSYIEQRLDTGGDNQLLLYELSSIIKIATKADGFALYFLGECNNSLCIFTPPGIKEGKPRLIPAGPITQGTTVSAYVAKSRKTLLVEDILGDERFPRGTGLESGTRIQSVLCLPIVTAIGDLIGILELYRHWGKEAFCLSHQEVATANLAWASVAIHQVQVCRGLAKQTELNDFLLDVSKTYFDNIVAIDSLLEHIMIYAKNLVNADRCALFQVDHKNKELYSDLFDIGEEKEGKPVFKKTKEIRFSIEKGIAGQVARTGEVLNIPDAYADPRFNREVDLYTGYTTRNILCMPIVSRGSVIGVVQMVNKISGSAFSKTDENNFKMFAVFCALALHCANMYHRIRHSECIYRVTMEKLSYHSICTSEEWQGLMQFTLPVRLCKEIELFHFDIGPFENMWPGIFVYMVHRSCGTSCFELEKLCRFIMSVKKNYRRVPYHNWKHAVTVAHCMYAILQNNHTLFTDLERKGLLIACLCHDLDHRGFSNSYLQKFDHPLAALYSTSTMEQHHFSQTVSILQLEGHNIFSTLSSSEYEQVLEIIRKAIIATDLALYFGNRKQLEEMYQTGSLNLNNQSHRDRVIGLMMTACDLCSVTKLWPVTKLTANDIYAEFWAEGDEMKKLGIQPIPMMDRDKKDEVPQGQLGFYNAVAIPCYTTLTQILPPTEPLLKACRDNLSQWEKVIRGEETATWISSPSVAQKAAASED

This assay concerns the target human PDE10A2 (Homo sapiens (Human), UniProt Q9Y233). Nature of the assay: PDE10 fluorescence polarization (IMAP FP) inhibition assay. It is filed as biochemical. The following applies: human PDE10A2 from transfected AD293 cell lysate; FAM-labeled cAMP 50 nM; room temperature; read-out: PDE10A Ki. Here is the method: The activity of the compounds in accordance with the present invention as PDE10 inhibitors may be readily determined without undue experimentation using a fluorescence polarization (FP) methodology that is well known in the art (Huang, W., et al., J. Biomol Screen, 2002, 7: 215).
In a typical experiment the PDE10 inhibitory activity of the compounds of the present invention was determined in accordance with the following experimental method. PDE10A2 was amplified from human fetal brain cDNA (Clontech, Mountain View, Calif.) using a forward primer corresponding to nucleotides 56-77 of human PDE10A2 (Accession No. AF127480, Genbank Identifier 4894716), containing a Kozak consensus sequence, and a reverse primer corresponding to nucleotides 2406-2413 of human PDE10A2 (Accession No. AF127480, Genbank Identifier 4894716). Amplification with Easy-A polymerase (Stratagene, La Jolla, Calif.) was 95° C. for 2 minutes followed by thirty three cycles of 95° C. for 40 seconds, 55° C. for 30 seconds, and 72° C. for 2 minutes 48 seconds. Final extension was 72° C. for 7 minutes. The PCR product was TA cloned into pcDNA3.2-TOPO (Invitrogen, Carlsbad, Calif.) according to standard protocol. AD293 cells with 70-80% confluency were transiently transfected with human PDE10A2/pcDNA3.2-TOPO using Lipofectamine 2000 according to manufacturer specifications (Invitrogen, Carlsbad, Calif.). Cells were harvested 48 hours post-transfection and lysed by sonication (setting 3, 10×5 sec pulses) in a buffer containing 20 mM HEPES, 1 mM EDTA and protease inhibitor cocktail (Roche). Lysate was collected by centrifugation at 75,000×g for 20 minutes. Supernatant containing the cytoplasmic fraction was used for evaluation of PDE10A2 activity. The fluorescence polarization assay for cyclic nucleotide phosphodiesterases was performed using an IMAP® FP kit supplied by Molecular Devices, Sunnyvale, Calif. (product #R8139). IMAP® technology has been applied previously to phosphodiesterase assays (Huang, W., et al., J. Biomol Screen, 2002, 7: 215). Assays were performed at room temperature in 384-well microtiter plates with an incubation volume of 20.2 μL. Solutions of test compounds were prepared in DMSO and serially diluted with DMSO to yield 8 μL of each of 10 solutions differing by 3-fold in concentration, at 32 serial dilutions per plate. 100% inhibition is determined using a known PDE10 inhibitor, which can be any compound that is present at 5,000 times its Ki value in the assay described as follows, such as papaverine (see Siuciak, et al. Neuropharmacology (2006) 51:386-396; Becker, et al. Behav Brain Res (2008) 186(2):155-60; Threlfell, et al., J Pharmacol Exp Ther (2009) 328(3):785-795), 2-[4-[pyridin-4-yl-1-(2,2,2-trifluoroethyl)-1H-pyrazol-3-yl]phenoxymethyl]quinoline succinic acid or 2-[4-(1-methyl-4-pyridin-4-yl-1H-pyrazol-3-yl)-phenoxymethyl]quinoline succinic acid (see Schmidt, et al. J Pharmacol Exp Ther (2008) 325:681-690; Threlfell, et al., J Pharmacol Exp Ther (2009) 328(3): 785-795). 0% of inhibition is determined by using DMSO (1% final concentrations). A Labcyte Echo 555 (Labcyte, Sunnyvale, Calif.) is used to dispense 200 nL from each well of the titration plate to the 384 well assay plate. A solution of enzyme (1/7000 dilution from aliquots; sufficient to produce 20% substrate conversion) and a separate solution of FAM-labeled cAMP PDE from Molecular Devices (product #R7506), at a final concentration of 50 nM are made in the assay buffer (10 mM Tris HCl, pH 7.2, 10 mM MgCl2, 0.05% NaN3 0.01% Tween-20, and 1 mM DTT). The enzyme is added to the assay plates by the addition of 10 μL of enzyme solution to each well, shaken to mix and incubated at room temperature for 60 minutes. The substrate is then added to the assay plates by the addition of 10 uL of substrate solution to each well, shaken to mix, and incubated at room temperature for 60 minutes. […]
For orientation: Fluorescence polarisation rises when a labelled molecule tumbles more slowly, as on binding a larger partner.
A word on the Ki: it is the dissociation constant of the complex between target and ligand, obtained from inhibition or displacement. Turning to `COc1ccc([C@H]2C[C@@H]2COc2nc(C)ncc2CN2CCC(F)(F)C2)nc1` [SS1, 5-[(3,3-difluoropyrrolidin-1-yl)methyl]-4-{[(1S,2S)-2-(5-methoxypyridin-2-yl)cyclopropyl]methoxy}-2-methylpyrimidine], the Ki is 60.8 nM. On to `COc1ccc([C@H]2C[C@@H]2COc2nc(C)ncc2/C=C/c2cccnc2)nc1` [TT1, 4-{[(1S,2S)-2-(5-methoxypyridin-2-yl)cyclopropyl]methoxy}-2-methyl-5-[(E)-2-(pyridin-3-yl)ethenyl]pyrimidine], for which the Ki was 0.6 nM. The figure for `COc1ccc([C@H]2C[C@@H]2COc2nc3cccnc3cc2-c2cnn(CCO)c2)nc1` [LL3, 2-[4-(2-{[(1S,2S)-2-(5-methoxypyridin-2-yl)cyclopropyl]methoxy}-1,5-naphthyridin-3-yl)-1H-pyrazol-1-yl]ethanol] is 0.23 nM; for `COc1ccc([C@H]2C[C@@H]2COc2ncc(C)cc2-c2cnn3c2CCC3)nc1` [1-39, 3-(2-{[(1S,2S)-2-(5-methoxypyridin-2-yl)cyclopropyl]methoxy}-5-methylpyridin-3-yl)-5,6-dihydro-4H-pyrrolo[1,2-b]pyrazole] it is 0.34 nM. The figure for `COc1ccc([C@H]2C[C@@H]2COc2nc(C)ncc2-c2nnc(C3CC3)s2)nc1` [1-55, 5-(5-cyclopropyl-1,3,4-thiadiazol-2-yl)-4-{[(1S,2S)-2-(5-methoxypyridin-2-yl)cyclopropyl]methoxy}-2-methylpyrimidine] is 4.2 nM. The figure for `COc1ccc([C@H]2C[C@@H]2COc2nc3cccnc3cc2C2CCCN(C(C)=O)C2)nc1` (stereo partly drawn) [RR4, 1-[3-(2-{[(1S,2S)-2-(5-methoxypyridin-2-yl)cyclopropyl]methoxy}-1,5-naphthyridin-3-yl)piperidin-1-yl]ethanone] is 2.5 nM; for `COc1ccc([C@H]2C[C@@H]2COc2nc(C)ncc2-c2cnn(C)c2)nc1` [MM4, 4-{[(1S,2S)-2-(5-methoxypyridin-2-yl)cyclopropyl]methoxy}-2-methyl-5-(1-methyl-1H-pyrazol-4-yl)pyrimidine] it is 0.25 nM; for `COc1ccc([C@H]2C[C@@H]2COc2nc(C)c(C)nc2-c2cncc(OC)c2)nc1` [1-36, 2-(5-methoxypyridin-3-yl)-3-{[(1S,2S)-2-(5-methoxypyridin-2-yl)cyclopropyl]methoxy}-5,6-dimethylpyrazine] it is 0.22 nM. For the compound `COc1ccc([C@H]2C[C@@H]2COc2nc(C)ncc2-c2ccc(C)nc2)nc1` [1-73, 4-{[(1S,2S)-2-(5-methoxypyridin-2-yl)cyclopropyl]methoxy}-2-methyl-5-(6-methylpyridin-3-yl)pyrimidine], the Ki was found to be 0.8 nM. Next, `COc1ccc([C@H]2C[C@@H]2COc2nc(C)ncc2C2=CCC(O)CC2)nc1` (stereo partly drawn) [1-31, 4-(4-{[(1S,2S)-2-(5-methoxypyridin-2-yl)cyclopropyl]methoxy}-2-methylpyrimidin-5-yl)cyclohex-3-en-1-ol]: 0.15 nM. The figure for `Cc1ncc(-c2cnn(C)c2)c(OC[C@H]2C[C@@H]2c2ccn(C)n2)n1` [1-54, 2-methyl-5-(1-methyl-1H-pyrazol-4-yl)-4-{[(1S,2S)-2-(1-methyl-1H-pyrazol-3-yl)cyclopropyl]methoxy}-pyrimidine] is 3.2 nM.

For `Cc1ncc(-c2c(C)nn(C)c2C)c(OC[C@H]2C[C@@H]2c2ccc3ccccc3n2)n1` [1-46, 2-[(1S,2S)-2-({[2-methyl-5-(1,3,5-trimethyl-1H-pyrazol-4-yl)pyrimidin-4-yl]oxy}methyl)cyclopropyl]quinoline], the Ki is 0.002 nM. For the compound `Cn1cc(-c2cc3ccncc3nc2OC[C@H]2C[C@@H]2c2ccc3ncccc3n2)cn1` [1-42, 2-[(1S,2S)-2-({[3-(1-methyl-1H-pyrazol-4-yl)-1,7-naphthyridin-2-yl]oxy}methyl)cyclo-propyl]-1,5-naphthyridine], the inhibition constant Ki was 0.04 nM. With `COc1ccc([C@H]2C[C@@H]2COc2nc(C)ncc2-c2csc(C)n2)nc1` [1-57, 4-{[(1S,2S)-2-(5-methoxypyridin-2-yl)cyclopropyl]methoxy}-2-methyl-5-(2-methyl-1,3-thiazol-4-yl)pyrimidine], the Ki amounted to 0.78 nM.
